Results: patent publication US6071896A, “Suppression of thromboxane levels by percutaneous administration of aspirin” (Gundersen Clinic, Ltd., priority 1998, dated 2000)
Ends that are not written are not given here.

Columns and labels:
[1] = test system: PGI2 formation in response to intravenous bradykinin; conditions: on average; cited from earlier work
[2] = test system: PGI2 formation in response to intravenous bradykinin; assay: Urinary PGI-M excretion at rest and after bradykinin infusion, Example 3; format: in vivo, human; conditions: 4 subjects; intravenous 100-800 ng/kg/min
Protocol: In an additional 4 subjects, we examined the increase in PGI2 formation in response to intravenous bradykinin prior to and following oral aspirin 75 mg or dermal aspirin 750 mg daily for 14 days. The protocol for bradykinin has been described previously [Clark, N.Engl.J.Med 325:1137 (1991)]. Volunteers were admitted after an overnight fast to the Clinical Research Center. Blood samples were obtained for serum TXB2 and the subject asked to void. Through a peripheral vein, 1 liter of normal saline was infused over 1 hour. After a further hour, bradykinin was infused in incremental doses of 100-800 ng/kg/min, each over 15 mm. The infusion was continued at the maximum tolerated dose for a total period of 2 hr. Blood pressure and heart rate were monitored continuously. Urine was collected in separate 2 hr aliquots prior to, during and following the bradykinin infusion.
^1 The excretion of TXM and PGIM before and following dermal aspirin
750 mg/day or oral aspirin 75 mg/day for 10 days. Urine samples were
collected over 2 hr before (rest) and following the administration of […]

For RPPGFSPFR [bradykinin], the “Increase in PGI2 biosynthesis by bradykinin, previous studies” value [1] is given as 2-6 fold and the “Increase in PGI-M excretion induced by bradykinin” value [2] is given as 5.1±6 fold.
